Measurements from the NIST ThermoML archive (doi:10.1021/acs.jced.5b00654).
Where “and” joins values, the source holds several entries; their conditions need not be identical. Equal entries are not always repeated.

Conditions: Fluid (supercritical or subcritical phases); for viscosity: Vibrating wire viscometry; for mass density: Buoyancy - hydrostatic balance with magnetic suspension - one sinker

CCCC [butane]
Conditions | mass density | viscosity
348.15 K, 63.3 kPa | – | 0.008591 mPa·s
348.15 K, 337.86 kPa | 7.2315 kg/m3 | 0.008603 mPa·s
348.15 K, 337.88 kPa | 7.2315 kg/m3 | 0.008607 mPa·s
348.15 K, 338.38 kPa | 7.2445 kg/m3 | 0.008599 mPa·s
348.15 K, 340.91 kPa | 7.3031 kg/m3 | 0.008599 mPa·s
348.15 K, 454.98 kPa | 9.9811 kg/m3 | 0.00861 mPa·s
348.15 K, 455.21 kPa | 9.9833 kg/m3 | 0.00861 mPa·s
348.15 K, 516.69 kPa | 11.497 kg/m3 | 0.008615 mPa·s
348.15 K, 516.76 kPa | 11.497 kg/m3 | 0.008618 mPa·s
373.13 K, 106.93 kPa | 2.0348 kg/m3 | 0.009211 mPa·s
373.13 K, 106.95 kPa | 2.0363 kg/m3 | 0.009213 mPa·s
373.13 K, 106.98 kPa | 2.037 kg/m3 | 0.00921 mPa·s
373.13 K, 157.77 kPa | 3.0215 kg/m3 | 0.009217 mPa·s
373.13 K, 916.45 kPa | 20.053 kg/m3 and 20.052 kg/m3 | 0.009329 mPa·s and 0.009334 mPa·s
373.14 K, 57.69 kPa | 1.0901 kg/m3 | 0.009211 mPa·s
373.14 K, 57.72 kPa | 1.0901 kg/m3 | 0.009214 mPa·s
373.14 K, 57.76 kPa | 1.0909 kg/m3 | 0.009207 mPa·s
373.14 K, 157.75 kPa | 3.0215 kg/m3 | 0.00922 mPa·s
373.14 K, 210.39 kPa | 4.0609 kg/m3 | 0.009225 mPa·s
373.14 K, 273.38 kPa | 5.3326 kg/m3 | 0.00923 mPa·s
373.14 K, 274.72 kPa | 5.3593 kg/m3 | 0.009227 mPa·s
373.14 K, 493.67 kPa | 9.9707 kg/m3 | 0.009255 mPa·s
373.14 K, 493.81 kPa | 9.9744 kg/m3 | 0.009247 mPa·s
373.14 K, 572.54 kPa | 11.724 kg/m3 | 0.009263 mPa·s
373.14 K, 572.6 kPa | 11.728 kg/m3 | 0.009259 mPa·s
373.14 K, 669.81 kPa | 13.955 kg/m3 | 0.00928 mPa·s
373.14 K, 670 kPa | 13.959 kg/m3 | 0.009283 mPa·s
373.14 K, 751.04 kPa | 15.893 kg/m3 | 0.009293 mPa·s
373.14 K, 838.34 kPa | 18.049 kg/m3 | 0.009315 mPa·s
373.14 K, 1095.4 kPa | 24.953 kg/m3 | 0.009394 mPa·s
373.14 K, 1095.5 kPa | 24.958 kg/m3 | 0.00939 mPa·s
373.14 K, 1123 kPa | – | 0.009464 mPa·s
373.14 K, 1262.7 kPa | 30.019 kg/m3 | 0.009463 mPa·s
373.14 K, 1263 kPa | 30.031 kg/m3 | –
373.15 K, 210.37 kPa | 4.0602 kg/m3 | 0.009228 mPa·s
373.15 K, 344.33 kPa | 6.7909 kg/m3 | 0.00923 mPa·s
373.15 K, 344.35 kPa | 6.7909 kg/m3 | 0.009234 mPa·s
373.15 K, 392.71 kPa | 7.8028 kg/m3 | 0.009241 mPa·s
373.15 K, 439.63 kPa | 8.8018 kg/m3 | 0.009247 mPa·s
373.15 K, 441.23 kPa | 8.8343 kg/m3 | 0.009243 mPa·s
373.15 K, 750.55 kPa | 15.881 kg/m3 | 0.009298 mPa·s
373.15 K, 1366.4 kPa | 33.46 kg/m3 | 0.009514 mPa·s
373.15 K, 1367.1 kPa | 33.484 kg/m3 | 0.009518 mPa·s
423.11 K, 2532.5 kPa | 59.203 kg/m3 | 0.01157 mPa·s
423.12 K, 2534 kPa | 59.251 kg/m3 | 0.01158 mPa·s
423.13 K, 2535.6 kPa | 59.303 kg/m3 | 0.01157 mPa·s
423.16 K, 195.54 kPa | 3.2893 kg/m3 | 0.0104 mPa·s
423.16 K, 195.59 kPa | 3.2893 kg/m3 | 0.0104 mPa·s
423.17 K, 450.91 kPa | 7.7808 kg/m3 | 0.01045 mPa·s
423.17 K, 452.37 kPa | 7.8076 kg/m3 | 0.01045 mPa·s
423.17 K, 1490.2 kPa | 29.071 kg/m3 | 0.01078 mPa·s
423.17 K, 2272.3 kPa | 50.31 kg/m3 | 0.01129 mPa·s
423.19 K, 654.26 kPa | 11.533 kg/m3 | 0.0105 mPa·s
423.19 K, 1490 kPa | 29.063 kg/m3 | 0.01078 mPa·s
423.19 K, 3006 kPa | 79.774 kg/m3 | 0.01234 mPa·s
423.2 K, 653.48 kPa | 11.519 kg/m3 | 0.01049 mPa·s
423.2 K, 2781.1 kPa | 69.059 kg/m3 | 0.01191 mPa·s
423.2 K, 2781.6 kPa | 69.058 kg/m3 | 0.01191 mPa·s
423.2 K, 3005.8 kPa | 79.773 kg/m3 | 0.01233 mPa·s
423.2 K, 3170.2 kPa | 89.28 kg/m3 | 0.01273 mPa·s
423.24 K, 1016.1 kPa | 18.65 kg/m3 | 0.0106 mPa·s
423.25 K, 1015.9 kPa | 18.648 kg/m3 | 0.01059 mPa·s
423.26 K, 884.12 kPa | 15.981 kg/m3 | 0.01056 mPa·s
423.26 K, 884.38 kPa | 15.987 kg/m3 | 0.01055 mPa·s
423.28 K, 3171.4 kPa | 89.266 kg/m3 | 0.01273 mPa·s
423.47 K, 3280.9 kPa | 96.663 kg/m3 | 0.01307 mPa·s
423.48 K, 3280.8 kPa | 96.642 kg/m3 | 0.01306 mPa·s
424.21 K, 3176.8 kPa | 88.401 kg/m3 | 0.01272 mPa·s
424.21 K, 3177 kPa | 88.415 kg/m3 | 0.01273 mPa·s
428.08 K, 194.36 kPa | 3.2322 kg/m3 | 0.01054 mPa·s
428.09 K, 194.34 kPa | 3.2308 kg/m3 | 0.01053 mPa·s
428.09 K, 5149.9 kPa | 360.26 kg/m3 | 0.04425 mPa·s
428.09 K, 5150.2 kPa | 360.25 kg/m3 | –
